From patent EP0193257A1, “Control of micro-organisms in water-containing compositions” (NIPA LABORATORIES, LTD., priority 1985, dated 1986)

Experiments:
Type in all cases: cell-based
[1] = test system: Pseudomonas aeruginosa; experiment: Bactericidal effect in 27% sodium lauryl ether sulphate (challenge test)
Procedure: (§1) Sodium lauryl ether sulphate (SLES) is a commonly used anionic detergent, a major active component of shampoos, foam baths and general purpose cleaners. The bactericidal activity of some compounds covered by the general formula given above was evaluated at final levels of 0.10% (w/w) and 0. 15% (w/w) in a 27% active solution of SLES (confirmed as containing no other preservatives). The activity of these compounds was evaluated in comparison with 0.30% methyl-4-hydroxybenzoate and an unpreserved control sample.
(§2) The test organisms were three species of resistant Gram negative bacteria which had previously been isolated from contaminated detergent products. 20g portions of test solutions were inoculated with 0.1 ml pure culture of the test bacteria and the time taken to achieve a total lethal effect against each species was determined by sub-culture at regular intervals into sterile dilution media (containing preservative inact ivators) and then into sterile Nutrient Broth, which was incubated for 4 days at 32°C to determine the presence or absence of surviving bacteria.

[2] = test system: Klebsiella oxytoca; experiment: as above
Procedure: as §1, §2

[3] = test system: Serratia marcescens; experiment: as above
Procedure: as §1, §2

[4] = test system: Pseudomonas aeruginosa; experiment: Challenge test in Polysorbate 80 solutions
Procedure: (§3) Many antimicrobial preservatives are inactivated by polyalkoxylated nonionic emulsifiers which are widely used in emulsification of cosmetic, pharmaceutical and industrial emulsions. […] Normal use levels of Polysorbate 80 are 1-5%.
(§4) 3,5-Dibromo-4-hydroxybenzaldehyde was evaluated at 0.05%, 0.10% and 0.15% in 5% and 10% Polysorbate 80 solutions by a challenge test of the type described in Example 2.

[5] = test system: Pseudomonas putida; experiment: Challenge test in Polysorbate 80 solutions
Procedure: as §3, §4

[6] = test system: Escherichia coli; experiment: Challenge test in Polysorbate 80 solutions
Procedure: as §3, §4

[7] = test system: Klebsiella oxytoca; experiment: Challenge test in Polysorbate 80 solutions
Procedure: as §3, §4

[8] = test system: Serratia marcescens; experiment: Challenge test in Polysorbate 80 solutions
Procedure: as §3, §4

[9] = test system: Pseudomonas aeruginosa; experiment: Microbial challenge test in cosmetic cream
Procedure: (§5) Emulsions are susceptible to contamination and spoilage by-a wide range of micro-organisms. 3.5-Dibromo-4-hydroxybenzaldehyde (DBHB), as a non-limiting illustration of the invention, was evaluated in a typical cosmetic cream for microbiocidal efficacy. The cosmetic cream had the following formulation: […]
(§6) This cream was prepared by heating the oil and water phases to 70°C, mixing and stirring until cool. The DBHB was incorporated into the cream at final levels of 0.05%, 0.10% and 0.15% by dissolving into the emulsion components at the heating stage. A microbial challenge test was performed to determine the micro-biocidal activity of the test product. The following test organisms were inoculated in pure culture into portions of sterile cream samples and the time taken to achieve a total lethal effect was determined by regular sub-culture into recovery media (with preservative inactivators) which were incubated and observed for growth of survivors.

[10] = test system: Pencicillium expansum; experiment: Microbial challenge test in cosmetic cream
Procedure: as §5, §6

[11] = test system: Pseudomonas putida; experiment: Microbial challenge test in cosmetic cream
Procedure: as §5, §6

[12] = test system: Escherichia coli; experiment: Microbial challenge test in cosmetic cream
Procedure: as §5, §6

[13] = test system: Staphylococcus aureus; experiment: Microbial challenge test in cosmetic cream
Procedure: as §5, §6

[14] = test system: Serratia marcescens; experiment: Microbial challenge test in cosmetic cream
Procedure: as §5, §6

[15] = test system: Candida albicans; experiment: Microbial challenge test in cosmetic cream
Procedure: as §5, §6

[16] = test system: mixed culture of 7 strains of Gram negative bacteria; experiment: Survivor plate count in shampoo formulation after challenge; details: shampoo with 0.05% citric acid alone (Control 1)
Procedure: A shampoo formulation was prepared to the following formula: […]
Various additions were made to portions of this shampoo in sterile bottles under aseptic conditions, as follows: • 1. 0.20% of 30% DCHB in propylene glycol (0.06% active DCHB) • 2. 0.20% of 30% DCHB in propylene glycol + 0.05% citric acid • 3. 0.05% citric acid (control 1) • 4. No addition (control 2)
Each of these systems was inoculated with a mixed culture of 7 strains of Gram negative bacteria, at an initial inocullum level of 9.0x10^7 colony forming units per g. At 30 mins, 1 hour, 2 hours, 6 hours, 24 hours and 7 days after inoculation the total number of survivors in each sample portion were determined by serial dilution and plate counting; with the following results: […]

[17] = 0.05%, Polysorbate 80 level 10%
[18] = 0.10%, Polysorbate 80 level 10%
[19] = 0.15%, Polysorbate 80 level 10%

SMILES: Cc1cc(C=O)cc(C)c1O [3,5-Dimethyl-4-hydroxybenzaldehyde, 3,5,-Dimethyl-4-hydroxybenzaldehyde]
- Time to achieve total lethal effect against: P aeruginosa ([1]; 0.10% in 27% SLES): 1 hour hours
- Time to achieve total lethal effect against: P aeruginosa ([1]; 0.15% in 27% SLES): <1 h
- Time to achieve total lethal effect against: K oxytoca ([2]; 0.10% in 27% SLES): 3 h
- Time to achieve total lethal effect against: K oxytoca ([2]; 0.15% in 27% SLES): <1 h
- Time to achieve total lethal effect against: S marcescens ([3]; 0.10% in 27% SLES): 1 days
- Time to achieve total lethal effect against: S marcescens ([3]; 0.15% in 27% SLES): 0.12 days

SMILES: O=Cc1ccc(O)c(Cl)c1 [3-Chloro-4-hydroxybenzaldehyde]
- Time to achieve total lethal effect against: P aeruginosa ([1]; 0.10% in 27% SLES): 3 h
- Time to achieve total lethal effect against: P aeruginosa ([1]; 0.15% in 27% SLES): 1 h
- Time to achieve total lethal effect against: K oxytoca ([2]; 0.10% in 27% SLES): 6 h
- Time to achieve total lethal effect against: K oxytoca ([2]; 0.15% in 27% SLES): 1 h
- Time to achieve total lethal effect against: S marcescens ([3]; 0.10% in 27% SLES): 1 days
- Time to achieve total lethal effect against: S marcescens ([3]; 0.15% in 27% SLES): 0.25 days

SMILES: O=Cc1cc(Br)c(O)c(Br)c1 [DBHB, 3,5-Dibromo-4-hydroxybenzaldehyde]
- Time taken to achieve total lethal effect against: P aeruginosa ([4]; 0.05%, Polysorbate 80 level 5%): 3 h
- Time taken to achieve total lethal effect against: P aeruginosa [4, 17]: 24 h
- Time taken to achieve total lethal effect against: P aeruginosa ([4]; 0.10%, Polysorbate 80 level 5%): <1 h
- Time taken to achieve total lethal effect against: P aeruginosa [4, 18]: 3 h
- Time taken to achieve total lethal effect against: P aeruginosa ([4]; 0.15%, Polysorbate 80 level 5%): <1 h
- Time taken to achieve total lethal effect against: P aeruginosa [4, 19]: <1 h
- Time taken to achieve total lethal effect against: P putida ([5]; 0.05%, Polysorbate 80 level 5%): 3 h
- Time taken to achieve total lethal effect against: P putida [5, 17]: 1 h
- Time taken to achieve total lethal effect against: P putida ([5]; 0.10%, Polysorbate 80 level 5%): <1 h
- Time taken to achieve total lethal effect against: P putida [5, 18]: 1 h
- Time taken to achieve total lethal effect against: P putida ([5]; 0.15%, Polysorbate 80 level 5%): <1 h
- Time taken to achieve total lethal effect against: P putida [5, 19]: <1 h
- Time taken to achieve total lethal effect against: E coli ([6]; 0.05%, Polysorbate 80 level 5%): 6 h
- Time taken to achieve total lethal effect against: E coli [6, 17]: 3 h
- Time taken to achieve total lethal effect against: E coli ([6]; 0.10%, Polysorbate 80 level 5%): <1 h
- Time taken to achieve total lethal effect against: E coli [6, 18]: 1 h
- Time taken to achieve total lethal effect against: E coli ([6]; 0.15%, Polysorbate 80 level 5%): <1 h
- Time taken to achieve total lethal effect against: E coli [6, 19]: <1 h
- Time taken to achieve total lethal effect against: K oxytoca ([7]; 0.05%, Polysorbate 80 level 5%): 6 h
- Time taken to achieve total lethal effect against: K oxytoca [7, 17]: 3 h
- Time taken to achieve total lethal effect against: K oxytoca ([7]; 0.10%, Polysorbate 80 level 5%): 1 h
- Time taken to achieve total lethal effect against: K oxytoca [7, 18]: 1 h
- Time taken to achieve total lethal effect against: K oxytoca ([7]; 0.15%, Polysorbate 80 level 5%): <1 h
- Time taken to achieve total lethal effect against: K oxytoca [7, 19]: <1 h
- Time taken to achieve total lethal effect against: S marcescens ([8]; 0.05%, Polysorbate 80 level 5%): 24 h
- Time taken to achieve total lethal effect against: S marcescens [8, 17]: 24 h
- Time taken to achieve total lethal effect against: S marcescens ([8]; 0.10%, Polysorbate 80 level 5%): 1 h
- Time taken to achieve total lethal effect against: S marcescens [8, 18]: 3 h
- Time taken to achieve total lethal effect against: S marcescens ([8]; 0.15%, Polysorbate 80 level 5%): 1 h
- Time taken to achieve total lethal effect against: S marcescens [8, 19]: 1 h
- Time taken to achieve total lethal effect against: P aeruginosa ([9]; 0.05% in cosmetic cream): 3 h
- Time taken to achieve total lethal effect against: P aeruginosa ([9]; 0.10% in cosmetic cream): 3 h
- Time taken to achieve total lethal effect against: P aeruginosa ([9]; 0.15% in cosmetic cream): <1 h
- Time taken to achieve total lethal effect against: Pen expansum ([10]; 0.05% in cosmetic cream): 4 days
- Time taken to achieve total lethal effect against: Pen expansum ([10]; 0.10% in cosmetic cream): 2 days
- Time taken to achieve total lethal effect against: Pen expansum ([10]; 0.15% in cosmetic cream): 1 days
- Time taken to achieve total lethal effect against: P putida ([11]; 0.05% in cosmetic cream): 3 h
- Time taken to achieve total lethal effect against: P putida ([11]; 0.10% in cosmetic cream): <1 h
- Time taken to achieve total lethal effect against: P putida ([11]; 0.15% in cosmetic cream): <1 h
- Time taken to achieve total lethal effect against: E coli ([12]; 0.05% in cosmetic cream): 3 h
- Time taken to achieve total lethal effect against: E coli ([12]; 0.10% in cosmetic cream): 3 h
- Time taken to achieve total lethal effect against: E coli ([12]; 0.15% in cosmetic cream): <1 h
- Time taken to achieve total lethal effect against: S aureus ([13]; 0.05% in cosmetic cream): 1 h
- Time taken to achieve total lethal effect against: S aureus ([13]; 0.10% in cosmetic cream): <1 h
- Time taken to achieve total lethal effect against: S aureus ([13]; 0.15% in cosmetic cream): <1 h
- Time taken to achieve total lethal effect against: S marcescens ([14]; 0.05% in cosmetic cream): 3 h
- Time taken to achieve total lethal effect against: S marcescens ([14]; 0.10% in cosmetic cream): 3 h
- Time taken to achieve total lethal effect against: S marcescens ([14]; 0.15% in cosmetic cream): 1 h
- Time taken to achieve total lethal effect against: C albicans ([15]; 0.05% in cosmetic cream): 3 h
- Time taken to achieve total lethal effect against: C albicans ([15]; 0.10% in cosmetic cream): <1 h
- Time taken to achieve total lethal effect against: C albicans ([15]; 0.15% in cosmetic cream): <1 h
- Time to achieve total lethal effect against: P aeruginosa ([1]; 0.10% in 27% SLES): 1 hour hours
- Time to achieve total lethal effect against: P aeruginosa ([1]; 0.15% in 27% SLES): <1 h
- Time to achieve total lethal effect against: K oxytoca ([2]; 0.10% in 27% SLES): 3 h
- Time to achieve total lethal effect against: K oxytoca ([2]; 0.15% in 27% SLES): <1 h
- Time to achieve total lethal effect against: S marcescens ([3]; 0.10% in 27% SLES): 0.12 days
- Time to achieve total lethal effect against: S marcescens ([3]; 0.15% in 27% SLES): <1 hour hours

SMILES: COC(=O)c1ccc(O)cc1 [Methyl-4-hydroxybenzoate, reference compound]
- Time to achieve total lethal effect against: P aeruginosa ([1]; 0.3% in 27% SLES): 336 h
- Time to achieve total lethal effect against: K oxytoca ([2]; 0.3% in 27% SLES): 504 h
- Time to achieve total lethal effect against: S marcescens ([3]; 0.3% in 27% SLES): >28 days

SMILES: O=C(O)CC(O)(CC(=O)O)C(=O)O [citric acid, reference compound]
- Mixed culture - colony forming units/g after: 30 mins [16]: 9.0x10^7 colony forming units/g
- Mixed culture - colony forming units/g after: 1 hour [16]: 3.5x10^7 colony forming units/g
- Mixed culture - colony forming units/g after: 2 hours [16]: 6.5x10^7 colony forming units/g
- Mixed culture - colony forming units/g after: 6 hours [16]: >1x10^8 colony forming units/g
- Mixed culture - colony forming units/g after: 24 hours [16]: >1x10^8 colony forming units/g
- Mixed culture - colony forming units/g after: 7 days [16]: >1x10^8 colony forming units/g
